The source of these data is patent US20230077362A1 (CORTEVA AGRISCIENCE LLC, priority 2019, published 2023).

For experiment [1], the system named is Beet Armyworm (Spodoptera exigua) ("BAW"), second instar larvae. Put plainly: Bioassay on beet armyworm (BAW), 128-well diet tray assay. Format: in vivo. As to conditions: for BAW rating: Table ABC, species BAW, C = not tested, D = no activity noticed; for pest or weed control at 50 µg/cm2: Spodoptera exigua, read-out: BAW rating. The procedure, abridged:
(§1)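 After sealing with a clear self-adhesive lid, the trays are incubated at 25° C. with 14 h light and 10 h dark for 5 to 7 days; mortality in each well is recorded as a percentage and averaged across the eight wells.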

Experiment [2] has as its system Cabbage Looper (Trichoplusia ni) ("CL"), second instar larvae. Nature of the experiment: Bioassay on cabbage looper (CL), 128-well diet tray assay. As to conditions: for CL rating: Table ABC, species CL, C = not tested, D = no activity noticed; for pest or weed control at 50 µg/cm2: Trichoplusia ni, read-out: CL rating. In kind it is in vivo. The procedure, abridged: as §1

With `Cc1ccc(COCC(F)(F)F)c(N2C(=O)CS/C2=N\C(=O)Nc2ccc(-c3ncn(-c4ccc(OC(F)(F)C(F)(F)F)cc4)n3)cc2C)c1` [Compound J681], in experiment [1], the BAW rating result is reported as “A (50-100)”. Moreover, the CL rating result in experiment [2] is “A (50-100)”.
With `Cc1cc(-c2ncn(-c3ccc(OC(F)(F)C(F)(F)F)cc3)n2)ccc1NC(=O)/N=C1\SCC(=O)N1c1cccc(C)c1COCC(F)(F)F` [Compound J682], the BAW rating entry in experiment [1] is reported as “A (50-100)”. In addition, the CL rating result in experiment [2] is on record as “A (50-100)”.
Regarding `Cc1ccc(Cc2ccc(F)cc2)c(N2C(=O)CS/C2=N\C(=O)Nc2ccc(-c3ncn(-c4ccc(S(F)(F)(F)(F)F)cc4)n3)cc2C#N)c1` [Compound J683, (Z)-1-(2-Cyano-4-(1-(4-(pentafluoro-λ^6-sulfaneyl)phenyl)-1H-1,2,4-triazol-3-yl)phenyl)-3-(3-(2-(4-fluorobenzyl)-5-methylphenyl)-4-oxothiazolidin-2-ylidene)urea], the pest or weed control at 50 µg/cm2 in experiment [1] and in experiment [2] was 50 to 100% in each case.
For `COC(C)c1ccc(C)cc1N1C(=O)CS/C1=N\C(=O)Nc1ccc(-n2cnc(-c3ccc(OC(F)(F)F)cc3)n2)cc1F` (stereo not shown) [Compound J685, (Z)-1-(2-Fluoro-4-(3-(4-(trifluoromethoxy)phenyl)-1H-1,2,4-triazol-1-yl)phenyl)-3-(3-(2-(1-methoxyethyl)-5-methylphenyl)-4-oxothiazolidin-2-ylidene)urea], the pest or weed control at 50 µg/cm2 in experiment [1] and in experiment [2] was 50 to 100% each time.
Take `COC(c1ccc(C)cc1N1C(=O)CS/C1=N\C(=O)Nc1ccc(-n2cnc(-c3ccc(OC(F)(F)F)cc3)n2)cc1F)C(F)(F)F` (stereo not shown) [Compound J687, (Z)-1-(2-Fluoro-4-(3-(4-(trifluoromethoxy)phenyl)-1H-1,2,4-triazol-1-yl)phenyl)-3-(3-(5-methyl-2-(2,2,2-trifluoro-1-methoxyethyl)phenyl)-4-oxothiazolidin-2-ylidene)urea]: the pest or weed control at 50 µg/cm2 in experiment [1] and in experiment [2] was 50 to 100% each time.
With `CN(C)c1ccc(OCC(F)(F)F)c(N2C(=O)CS/C2=N\C(=O)Nc2ccc(-n3cnc(-c4ccc(OC(F)(F)F)cc4)n3)cc2F)c1` [Compound J688, (Z)-1-(3-(5-(Dimethylamino)-2-(2,2,2-trifluoroethoxy)phenyl)-4-oxothiazolidin-2-ylidene)-3-(2-fluoro-4-(3-(4-(trifluoromethoxy)phenyl)-1H-1,2,4-triazol-1-yl)phenyl)urea], the pest or weed control at 50 µg/cm2 in experiment [1] and in experiment [2] was 50 to 100% in each case.
On to `Cc1ccc(COCC(F)(F)F)c(N2C(=O)CS/C2=N\C(=O)Nc2ccc(-n3cnc(-c4ccc(OC(F)(F)F)cc4)n3)cc2F)c1` [Compound J689, (Z)-1-(2-Fluoro-4-(3-(4-(trifluoromethoxy)phenyl)-1H-1,2,4-triazol-1-yl)phenyl)-3-(3-(5-methyl-2-((2,2,2-trifluoroethoxy)methyl)phenyl)-4-oxothiazolidin-2-ylidene)urea], for which the pest or weed control at 50 µg/cm2 in experiment [1] and in experiment [2] was 50 to 100% in each case.
Take `O=C(/N=C1\SCC(=O)N1c1cc(F)ccc1COCC(F)(F)F)Nc1ccc(-n2cnc(-c3ccc(OC(F)(F)F)cc3)n2)cc1F` [Compound J690, (Z)-1-(3-(5-Fluoro-2-((2,2,2-trifluoroethoxy)methyl)phenyl)-4-oxothiazolidin-2-ylidene)-3-(2-fluoro-4-(3-(4-(trifluoromethoxy)phenyl)-1H-1,2,4-triazol-1-yl)phenyl)urea]: the pest or weed control at 50 µg/cm2 in experiment [1] and in experiment [2] was 50 to 100% throughout.
`COc1ccc(COCC(F)(F)F)c(N2C(=O)CS/C2=N\C(=O)Nc2ccc(-n3cnc(-c4ccc(OC(F)(F)F)cc4)n3)cc2F)c1` [Compound J691, (Z)-1-(2-Fluoro-4-(3-(4-(trifluoromethoxy)phenyl)-1H-1,2,4-triazol-1-yl)phenyl)-3-(3-(5-methoxy-2-((2,2,2-trifluoroethoxy)methyl)phenyl)-4-oxothiazolidin-2-ylidene)urea]: the pest or weed control at 50 µg/cm2 in experiment [1] and in experiment [2] was 50 to 100% each time.
In the case of `Cc1ccc(COCC(F)F)c(N2C(=O)CS/C2=N\C(=O)Nc2ccc(-n3cnc(-c4ccc(OC(F)(F)F)cc4)n3)cc2F)c1` [Compound J692, (Z)-1-(3-(2-((2,2-Difluoroethoxy)methyl)-5-methylphenyl)-4-oxothiazolidin-2-ylidene)-3-(2-fluoro-4-(3-(4-(trifluoromethoxy)phenyl)-1H-1,2,4-triazol-1-yl)phenyl)urea], the pest or weed control at 50 µg/cm2 in experiment [1] and in experiment [2] was 50 to 100% in each case.
`Cc1ccc(OCCC(F)(F)F)c(N2C(=O)CS/C2=N\C(=O)Nc2ccc(-n3cnc(-c4ccc(OC(F)(F)F)cc4)n3)cc2F)c1` [Compound J693, (Z)-1-(2-Fluoro-4-(3-(4-(trifluoromethoxy)phenyl)-1H-1,2,4-triazol-1-yl)phenyl)-3-(3-(5-methyl-2-(3,3,3-trifluoropropoxy)phenyl)-4-oxothiazolidin-2-ylidene)urea]: the pest or weed control at 50 µg/cm2 in experiment [1] and in experiment [2] was 50 to 100% each time.
In the case of `Cc1ccc(C(C)C)c(N2C(=O)CS/C2=N\C(=O)Nc2ccc(-n3cnc(-c4ccc(C(F)(F)F)cc4)n3)cc2F)c1` [Compound J694, (Z)-1-(2-Fluoro-4-(3-(4-(trifluoromethyl)phenyl)-1H-1,2,4-triazol-1-yl)phenyl)-3-(3-(2-isopropyl-5-methylphenyl)-4-oxothiazolidin-2-ylidene)urea], the pest or weed control at 50 µg/cm2 in experiment [1] and in experiment [2] was 50 to 100% in each case.
Take `COC(C)c1ccc(C)cc1N1C(=O)CS/C1=N\C(=O)Nc1ccc(-n2cnc(-c3ccc(C(F)(F)F)cc3)n2)cc1F` (stereo not shown) [Compound J695, (Z)-1-(2-Fluoro-4-(3-(4-(trifluoromethyl)phenyl)-1H-1,2,4-triazol-1-yl)phenyl)-3-(3-(2-(1-methoxyethyl)-5-methylphenyl)-4-oxothiazolidin-2-ylidene)urea]: the pest or weed control at 50 µg/cm2 in experiment [1] and in experiment [2] was 50 to 100% each time.
Regarding `COC(c1ccc(C)cc1N1C(=O)CS/C1=N\C(=O)Nc1ccc(-n2cnc(-c3ccc(C(F)(F)F)cc3)n2)cc1F)C(F)(F)F` (stereo not shown) [Compound J696, (Z)-1-(2-Fluoro-4-(3-(4-(trifluoromethyl)phenyl)-1H-1,2,4-triazol-1-yl)phenyl)-3-(3-(5-methyl-2-(2,2,2-trifluoro-1-methoxyethyl)phenyl)-4-oxothiazolidin-2-ylidene)urea], the pest or weed control at 50 µg/cm2 in experiment [1] and in experiment [2] was 50 to 100% in each case.
With `CN(C)c1ccc(OCC(F)(F)F)c(N2C(=O)CS/C2=N\C(=O)Nc2ccc(-n3cnc(-c4ccc(C(F)(F)F)cc4)n3)cc2F)c1` [Compound J697, (Z)-1-(3-(5-(Dimethylamino)-2-(2,2,2-trifluoroethoxy)phenyl)-4-oxothiazolidin-2-ylidene)-3-(2-fluoro-4-(3-(4-(trifluoromethyl)phenyl)-1H-1,2,4-triazol-1-yl)phenyl)urea], the pest or weed control at 50 µg/cm2 in experiment [1] and in experiment [2] was 50 to 100% each time.
Regarding `Cc1ccc(COCC(F)(F)F)c(N2C(=O)CS/C2=N\C(=O)Nc2ccc(-n3cnc(-c4ccc(C(F)(F)F)cc4)n3)cc2F)c1` [Compound J698, (Z)-1-(2-fluoro-4-(3-(4-(trifluoromethyl)phenyl)-1H-1,2,4-triazol-1-yl)phenyl)-3-(3-(5-methyl-2-((2,2,2-trifluoroethoxy)methyl)phenyl)-4-oxothiazolidin-2-ylidene)urea], the pest or weed control at 50 µg/cm2 in experiment [1] and in experiment [2] was 50 to 100% in each case.
As for `O=C(/N=C1\SCC(=O)N1c1cc(F)ccc1COCC(F)(F)F)Nc1ccc(-n2cnc(-c3ccc(C(F)(F)F)cc3)n2)cc1F` [Compound J699, (Z)-1-(3-(5-Fluoro-2-((2,2,2-trifluoroethoxy)methyl)phenyl)-4-oxothiazolidin-2-ylidene)-3-(2-fluoro-4-(3-(4-(trifluoromethyl)phenyl)-1H-1,2,4-triazol-1-yl)phenyl)urea], the pest or weed control at 50 µg/cm2 in experiment [1] and in experiment [2] was 50 to 100% in each case.
For the compound `COc1ccc(COCC(F)(F)F)c(N2C(=O)CS/C2=N\C(=O)Nc2ccc(-n3cnc(-c4ccc(C(F)(F)F)cc4)n3)cc2F)c1` [Compound J700, (Z)-1-(2-Fluoro-4-(3-(4-(trifluoromethyl)phenyl)-1H-1,2,4-triazol-1-yl)phenyl)-3-(3-(5-methoxy-2-((2,2,2-trifluoroethoxy)methyl)phenyl)-4-oxothiazolidin-2-ylidene)urea], the pest or weed control at 50 µg/cm2 in experiment [1] and in experiment [2] was 50 to 100% in each case.
Take `Cc1ccc(COCC(F)F)c(N2C(=O)CS/C2=N\C(=O)Nc2ccc(-n3cnc(-c4ccc(C(F)(F)F)cc4)n3)cc2F)c1` [Compound J701, (Z)-1-(3-(2-((2,2-Difluoroethoxy)methyl)-5-methylphenyl)-4-oxothiazolidin-2-ylidene)-3-(2-fluoro-4-(3-(4-(trifluoromethyl)phenyl)-1H-1,2,4-triazol-1-yl)phenyl)urea]: the pest or weed control at 50 µg/cm2 in experiment [1] and in experiment [2] was 50 to 100% throughout.
In the case of `Cc1ccc(OCCC(F)(F)F)c(N2C(=O)CS/C2=N\C(=O)Nc2ccc(-n3cnc(-c4ccc(C(F)(F)F)cc4)n3)cc2F)c1` [Compound J702, (Z)-1-(2-Fluoro-4-(3-(4-(trifluoromethyl)phenyl)-1H-1,2,4-triazol-1-yl)phenyl)-3-(3-(5-methyl-2-(3,3,3-trifluoropropoxy)phenyl)-4-oxothiazolidin-2-ylidene)urea], the pest or weed control at 50 µg/cm2 in experiment [1] and in experiment [2] was 50 to 100% each time.
